# Publication PMC7796031, “Studies of Coumarin Derivatives for Constitutive Androstane Receptor (CAR) Activation” (Molecules, 2020)
# Columns and labels:
# bile salt export pump = test system: bile salt export pump; set-up: method as in PMID 21649640; conditions: scoparone 10 μM with chenodeoxycholic acid 10 μM; cited from earlier work
# FXR = test system: FXR; set-up: method as in PMID 21649640; conditions: scoparone alone, up to 100 μM; cited from earlier work
# methyl-PP2Ac = assay: PP2Ac methylation status in Hep3B (western blot); type: cell-based, human; conditions: Hep3B, 5, 10, 20 and 40 μM, 24 h
# Method: Figure 5 The concentration-dependent study of PP2Ac methylation status under 6,7-diprenoxycoumarin (50) treatment. Hep3B cells (1 × 10^6) were treated with 50 (5, 10, 20 and 40 μM) for 24 h. Treated cell lysates were prepared as described in the Methods section and methyl-PP2Ac expression was analyzed by western blot.
# (§1) 1 × 10^6 cells were seeded in a 10 cm plate, incubated at 37 °C for overnight and treated with various concentrations of compounds for the indicated times. After incubation, the culture medium was removed and washed twice with 2 mL ice-cold 1× PBS. Three hundred μL of protein lysis buffer (150 mM NaCl, 50 mM Tris-HCl (pH 7.4), 1% SDS, 1% Triton X-100, 1 mM PMSF) was added into each plate, scraped with a rubber policeman, collected into a premarked microtube and the incubated in ice for 1 h, sonicated by Ultrasonic Cell Disruptor for three time at 5 s each. The cell lysated was cleared by centrifugation at 12,000× g for 15 min at 4 °C. Supernatants were transferred into a fresh marked microtube and stored at −20 °C for future use.
# (§2) Protein concentration of each sample was determined using a BCA Protein Assay Kit (Pirece®, Thermo Scientific). Different percentages of SDS-PAGE gels were prepared according to the molecular size of proteins of interest. […] The emitted fluorescence from the membrane was caught on a LAS-4000 biomolecule imager (FUJI.).
# MRP2 = assay: mRNA expression of MRP2 in Hep3B (RT-PCR); type: cell-based, human; conditions: 10 μM, 2, 4, 6, 8 and 10 h
# Method: (§3) Figure 6 The time course study of mRNA expression of MRP2 and UGT1A1 after 10 μM 6,7-diprenoxycoumarin treatment. Hep3B cells were treated with 10 μM 50 for 2, 4, 6, 8 and 10 h. The total mRNA was obtained and the expression of downstream genes were analyzed with PCR. The ratio of MRP2 to GAPDH was calculated using Image J and normalization.
# (§4) Total RNA was isolated from control and treated cells using a TRIzol reagent (Invitrogen) according to the manufacturer’s instruction. The RNA concentration was measured by a spectrophotometer and equal amounts of total RNA (2 μg) were reverse—transcribed using a RevertAid First Strand cDNA Synthesis Kit (K1622, Fermentas, Hanover, MD, USA). Amplification of cDNA was performed in the PCR reaction buffer (0.2 mM dNTP, 1.5 mM MgCl2, and 0.5 μM of each primer) containing 2.5 units of Taq DNA polymerase. The PCR products were resolved by agarose electrophoresis, visualized by ethidium bromide straining and quantified by Image J®. The PCR cycling procedures and sequences of primers are listed below. PCR conditions: (1) UGT1A1: 94 °C, 30 s; 62 °C, 45 s; 72 °C, 30 s; 27 cycles; (2) MRP2: 94 °C, 30 s; 62 °C, 45 s; 72 °C, 30 s; 27 cycles; (3) CAR: 94 °C, 30 s; 59 °C, 45 s; 72 °C, 30 s; 35 cycles; (4) GADPH: 94 °C, 30 s; 62 °C, 45 s; 72 °C, 30 s; 27 cycles; (4) gtPBREM: 94 °C, 30 s; 63 °C, 30 s; 68 °C, 60 s; 30 cycles.
# EGFR = target: T1, EGFR (Homo sapiens, UniProt P00533); assay: EGF-induced phosphorylation of EGFR in Hep3B (western blot); type: cell-based; conditions: 10 μM, 15 min
# T1 construct: 6,7-Diprenoxycoumarin (50) antagonized EGF-induced phosphorylation EGFR in Hep3B; endogenous in cells; host or cells: Hep3B
# Method: Figure 4 6,7-Diprenoxycoumarin (50) antagonized EGF-induced phosphorylation EGFR in Hep3B. The Hep3B cells (1 × 10^6) were treated without (Ctrl) or with EGF in the absent 50 or present (EGF + 50) of 10 μM 50 for 15 min and phosphorylation status of EGFR was measured.
# as §1, §2
# UGT1A1 = assay: mRNA expression of UGT1A1 in Hep3B (RT-PCR); type: cell-based, human; conditions: 10 μM, 2, 4, 6, 8 and 10 h
# Method: as §3, §4
# nuclear CAR = assay: Protein expression of nuclear CAR (nuclear extraction, western blot); type: cell-based, human; conditions: Hep3B, treatment for 2 h
# Method: Figure 3 Image of immunofluorescence staining for CAR translocation in Hep3B cells after 6,7-diprenoxycoumarin (50) treatment (A) and scoparone treatment (C). Hep3B cells were treated with 50 (10 μM) for 2 h. The negative control group was pre-treated with 10 nM okadaic acid (OA). The blue and green fluorescence stands for signals of nuclei and CAR protein, respectively. The protein expression of nuclear CAR after 6,7-diprenoxycoumarin (50) treatment for 2 h (B).
# Cells were harvest by centrifugation after trypsin-EDTA treatment. The ice-cold CER I (10 μL/1 × 10^6 cells) was added to the cell pellet following the manufacturer’s instruction. The tube was vigorously vortexed on the highest setting for 15 s to fully suspend the cell pellet, incubated on ice for 10 min, then ice-cold CER II was added to the tube and vortexed for 5 s on the highest setting. After incubating in ice for 1 min, tube was vortexed for 5 s on the highest setting then subjected to centrifuge for 5 min at 16,000× g. The supernatant (cytoplasmic fraction) was […] to a clean pre-chilled tube and the nuclear fraction (pellet) was re-suspended in ice-cold NER. […]
# Protein concentration of each sample was determined using a BCA Protein Assay Kit (Pirece®, Thermo Scientific). […] The emitted fluorescence from the membrane was caught on a LAS-4000 biomolecule imager (FUJI.).
# T1 sequence (P00533 25-1210): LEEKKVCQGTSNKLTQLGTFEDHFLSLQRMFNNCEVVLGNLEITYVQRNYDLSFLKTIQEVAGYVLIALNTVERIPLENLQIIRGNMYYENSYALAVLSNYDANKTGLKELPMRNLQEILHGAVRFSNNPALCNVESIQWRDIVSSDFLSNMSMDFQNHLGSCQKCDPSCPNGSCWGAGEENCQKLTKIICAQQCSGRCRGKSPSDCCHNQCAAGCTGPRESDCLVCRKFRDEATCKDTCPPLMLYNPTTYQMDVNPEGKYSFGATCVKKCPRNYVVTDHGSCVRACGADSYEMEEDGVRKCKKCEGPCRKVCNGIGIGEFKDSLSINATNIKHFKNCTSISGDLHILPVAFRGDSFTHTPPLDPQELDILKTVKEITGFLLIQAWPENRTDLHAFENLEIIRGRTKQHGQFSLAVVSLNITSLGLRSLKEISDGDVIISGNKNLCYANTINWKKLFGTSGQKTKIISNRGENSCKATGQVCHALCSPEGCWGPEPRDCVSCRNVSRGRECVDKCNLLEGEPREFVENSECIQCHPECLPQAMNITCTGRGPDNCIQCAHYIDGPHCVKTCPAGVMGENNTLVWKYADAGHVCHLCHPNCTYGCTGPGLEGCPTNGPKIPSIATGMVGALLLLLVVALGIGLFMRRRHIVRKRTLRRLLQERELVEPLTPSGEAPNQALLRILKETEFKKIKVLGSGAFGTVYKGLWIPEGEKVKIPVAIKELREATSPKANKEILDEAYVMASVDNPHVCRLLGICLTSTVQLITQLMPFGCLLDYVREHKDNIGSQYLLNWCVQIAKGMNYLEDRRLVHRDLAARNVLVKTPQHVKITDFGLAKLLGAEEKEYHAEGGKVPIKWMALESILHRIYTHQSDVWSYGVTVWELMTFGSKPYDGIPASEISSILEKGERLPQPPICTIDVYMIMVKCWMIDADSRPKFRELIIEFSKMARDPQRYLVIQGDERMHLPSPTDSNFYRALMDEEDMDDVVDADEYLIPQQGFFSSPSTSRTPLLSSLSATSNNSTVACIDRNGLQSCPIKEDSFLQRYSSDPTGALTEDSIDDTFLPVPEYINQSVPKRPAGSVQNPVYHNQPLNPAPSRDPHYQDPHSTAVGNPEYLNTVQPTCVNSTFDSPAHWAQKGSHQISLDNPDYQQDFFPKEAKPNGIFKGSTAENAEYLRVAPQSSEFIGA
smiles,measurement,setting,value
"COc1cc2ccc(=O)oc2cc1OC [Compound 39, scoparone]",effect on chenodeoxycholic acid-increased expression of bile salt export pump,bile salt export pump,potentiated
same,FXR activation,FXR,no effect
"CC(C)=CCOc1cc2ccc(=O)oc2cc1OCC=C(C)C [Compound 50, 6,7-diprenoxycoumarin]",methyl-PP2Ac (active form of PP2Ac),methyl-PP2Ac,increased
same,mRNA expression level of MRP2,MRP2,enhanced
same,EGF-induced phosphorylation of EGFR,EGFR,reduce
same,mRNA expression level of UGT1A1,UGT1A1,enhanced
same,protein expression of nuclear CAR,nuclear CAR,increased
